Assay results published in patent US20260130933A1, “PHARMACEUTICAL COMPOSITION FOR PREVENTION OR TREATMENT OF NEPHROPATHY AND/OR DIABETES MELLITUS, COMPRISING ENAVOGLIFLOZIN” (DAEWOONG PHARMACEUTICAL CO., LTD., priority 2022, published 2026).

Test: Example 5: renal function-related safety, changes in eGFR in the phase 3 trials of Examples 1 to 3
Assay type: in vivo, human
Parameters: eGFR, change from baseline: unit not given here
Conditions: for eGFR: in mL/min/1.73m2 (unit assumed)
Text: In phase 3 clinical trials of Examples 1 to 3, the changes in eGFR as an indicator of renal function-related safety were confirmed.

[1] = Week 6, Example 2 (combination therapy with metformin)
[2] = Week 6, Example 3 (combination therapy with metformin/gemigliptin)
[3] = Week 12, Example 2 (combination therapy with metformin)
[4] = Week 12, Example 3 (combination therapy with metformin/gemigliptin)
[5] = Week 18, Example 2 (combination therapy with metformin)
[6] = Week 18, Example 3 (combination therapy with metformin/gemigliptin)
[7] = Week 24, Example 2 (combination therapy with metformin)
[8] = Week 24, Example 3 (combination therapy with metformin/gemigliptin)
[9] = week 6, Example 2 (combination therapy with metformin)
[10] = week 6, Example 3 (combination therapy with metformin/gemigliptin)
[11] = week 12, Example 2 (combination therapy with metformin)
[12] = week 12, Example 3 (combination therapy with metformin/gemigliptin)
[13] = week 18, Example 2 (combination therapy with metformin)
[14] = week 18, Example 3 (combination therapy with metformin/gemigliptin)
[15] = week 24, Example 2 (combination therapy with metformin)
[16] = week 24, Example 3 (combination therapy with metformin/gemigliptin)

## CCOc1ccc(Cc2cc([C@@H]3O[C@H](CO)[C@@H](O)[C@H](O)[C@H]3O)ccc2Cl)cc1 [Dapagliflozin, reference compound]
[1]
  eGFR: 92.123
[2]
  eGFR: 90.5384
[3]
  eGFR: 92.274
[4]
  eGFR: 89.8198
[5]
  eGFR: 94.828
[6]
  eGFR: 90.9546
[7]
  eGFR: 93.739
[8]
  eGFR: 91.6344
[9]
  eGFR, change from baseline: −1.908
[10]
  eGFR, change from baseline: −1.1439
[11]
  eGFR, change from baseline: −1.559
[12]
  eGFR, change from baseline: −1.7177
[13]
  eGFR, change from baseline: 0.897
[14]
  eGFR, change from baseline: 0.0571
[15]
  eGFR, change from baseline: −0.193
[16]
  eGFR, change from baseline: 0.5790

## OC[C@H]1O[C@@H](c2cc(Cc3ccc(C4CC4)cc3)c(Cl)c3c2CCO3)[C@H](O)[C@@H](O)[C@@H]1O [Enavogliflozin, (2S,3R,4R,5S,6R)-2-(7-chloro-6 (4-cyclopropylbenzyl)-2,3-dihydrobenzofuran-4-yl)-6-(hydroxymethyl)tetrahydro-2H-pyran-3,4,5-triol]
Week 6, Example 1 (monotherapy)
  eGFR: 88.464
[1]
  eGFR: 88.574
[2]
  eGFR: 89.3847
Week 12, Example 1 (monotherapy)
  eGFR: 90.142
[3]
  eGFR: 90.566
[4]
  eGFR: 92.0995
Week 18, Example 1 (monotherapy)
  eGFR: 91.088
[5]
  eGFR: 88.185
[6]
  eGFR: 89.9269
Week 24, Example 1 (monotherapy)
  eGFR: 91.387
[7]
  eGFR: 88.056
[8]
  eGFR: 91.9246
Phase 3 trials of Examples 1 to 3
  Change in eGFR (renal function-related safety): no significant change in eGFR
Week 6, Example 1 (monotherapy)
  eGFR, change from baseline: −0.845
[9]
  eGFR, change from baseline: 0.425
[10]
  eGFR, change from baseline: 1.9291
Week 12, Example 1 (monotherapy)
  eGFR, change from baseline: 1.208
[11]
  eGFR, change from baseline: 2.488
[12]
  eGFR, change from baseline: 0.9308
Week 18, Example 1 (monotherapy)
  eGFR, change from baseline: 2.072
[13]
  eGFR, change from baseline: 0.105
[14]
  eGFR, change from baseline: −1.3048
Week 24, Example 1 (monotherapy)
  eGFR, change from baseline: 2.371
[15]
  eGFR, change from baseline: −0.024
[16]
  eGFR, change from baseline: 0.7726
